# According to patent publication US8404708B2, “Dual NK1/NK3 receptor antagonists” (Hoffmann-La Roche Inc., priority 2004, dated 2013):
# Key:
# [1] = target: human NK1 receptor (Homo sapiens, UniProt P25103); test: NK1 receptor binding, [3H]substance P displacement, CHO cell membranes; details: first value of the cell pKi NK1/NK3; human NK1 receptor, [3H]substance P
# [2] = target: T1, Recombinant human NK3 (hNK3) receptor (Homo sapiens, UniProt P29371); test: NK3 receptor binding, [3H]SR142801 displacement, membrane preparations; details: second value of the cell pKi NK1/NK3; hNK3 receptor, [3H]SR142801
# T1 construct: expressed in transfected cells
# T1 sequence (P29371 1-465): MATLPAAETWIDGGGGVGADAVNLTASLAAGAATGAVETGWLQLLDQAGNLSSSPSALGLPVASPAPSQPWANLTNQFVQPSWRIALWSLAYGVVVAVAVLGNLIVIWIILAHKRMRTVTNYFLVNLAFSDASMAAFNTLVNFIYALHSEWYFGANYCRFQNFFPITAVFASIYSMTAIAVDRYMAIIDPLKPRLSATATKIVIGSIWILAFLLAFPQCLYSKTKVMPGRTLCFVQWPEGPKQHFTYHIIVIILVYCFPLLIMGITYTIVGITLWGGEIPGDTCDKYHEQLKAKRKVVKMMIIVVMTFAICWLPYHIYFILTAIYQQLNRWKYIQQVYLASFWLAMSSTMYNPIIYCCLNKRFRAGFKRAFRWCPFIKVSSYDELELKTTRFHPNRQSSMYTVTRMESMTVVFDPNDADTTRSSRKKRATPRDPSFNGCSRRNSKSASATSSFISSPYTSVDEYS
# Summary of the method: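 Incubation ran 90 min at room temperature in 50 mM Tris-HCl pH 7.4 with 0.1% BSA, 4 mM MnCl2 and 1 μM phosphoramidon, using about 2.5 μg hNK3 membrane protein per well. Nonspecific binding was defined with 10 μM SB222200, and bound radioactivity was collected on PEI-soaked GF/C filters for scintillation counting.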
# Chain of human NK1 receptor (P25103 whole entry): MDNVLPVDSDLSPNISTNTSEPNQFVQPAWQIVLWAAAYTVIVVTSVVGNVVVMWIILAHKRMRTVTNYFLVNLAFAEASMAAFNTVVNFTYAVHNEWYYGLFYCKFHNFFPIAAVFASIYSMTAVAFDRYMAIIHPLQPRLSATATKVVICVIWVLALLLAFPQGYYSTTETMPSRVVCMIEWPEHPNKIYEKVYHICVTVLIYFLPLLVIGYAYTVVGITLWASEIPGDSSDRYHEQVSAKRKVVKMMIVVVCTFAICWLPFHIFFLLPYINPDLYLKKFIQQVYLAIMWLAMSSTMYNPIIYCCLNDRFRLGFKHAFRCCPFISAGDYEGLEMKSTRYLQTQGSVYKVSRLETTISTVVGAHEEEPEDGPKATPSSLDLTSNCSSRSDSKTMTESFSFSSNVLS
Ki [1] [nM],Ki [2] [nM],Structure (SMILES)
0.537,8.71,"CN(C(=O)C(C)(C)c1cc(C(F)(F)F)cc(C(F)(F)F)c1)c1cnc(N2C[C@@H](O)[C@@H](O)C2)cc1-c1ccccc1Cl [Example 48, (3R,4S)-2-(3,5-Bis-trifluoromethyl-phenyl)-N-[4-(2-chloro-phenyl)-6-(3,4-dihydroxy-pyrrolidin-1-yl)-pyridin-3-yl]-N-methyl-isobutyramide]"
0.479,14.8,"CN(C(=O)C(C)(C)c1cc(C(F)(F)F)cc(C(F)(F)F)c1)c1cnc(N2C[C@@H](O)[C@H](O)C2)cc1-c1ccccc1Cl [Example 49, (3R,4R)-2-(3,5-Bis-trifluoromethyl-phenyl)-N-[4-(2-chloro-phenyl)-6-(3,4-dihydroxy-pyrrolidin-1-yl)-pyridin-3-yl]-N-methyl-isobutyramide]"
1,2.69,"CN(CCO)c1cc(-c2ccccc2Cl)c(N(C)C(=O)C(C)(C)c2cc(C(F)(F)F)cc(C(F)(F)F)c2)cn1 [Example 54, 2-(3,5-Bis-trifluoromethyl-phenyl)-N-{4-(2-chloro-phenyl)-6-[(2-hydroxy-ethyl)-methyl-amino]-pyridin-3-yl}-N-methyl-isobutyramide]"
3.31,11.2,"CCN(CCO)c1cc(-c2ccccc2Cl)c(N(C)C(=O)C(C)(C)c2cc(C(F)(F)F)cc(C(F)(F)F)c2)cn1 [Example 55, 2-(3,5-Bis-trifluoromethyl-phenyl)-N-{4-(2-chloro-phenyl)-6-[ethyl-(2-hydroxy-ethyl)-amino]-pyridin-3-yl}-N-methyl-isobutyramide]"
4.57,5.25,"CCCN(CCO)c1cc(-c2ccccc2Cl)c(N(C)C(=O)C(C)(C)c2cc(C(F)(F)F)cc(C(F)(F)F)c2)cn1 [Example 56, 2-(3,5-Bis-trifluoromethyl-phenyl)-N-{4-(2-chloro-phenyl)-6-[(2-hydroxy-ethyl)-propyl-amino]-pyridin-3-yl}-N-methyl-isobutyramide]"
10,27.5,"CCCCN(CCO)c1cc(-c2ccccc2Cl)c(N(C)C(=O)C(C)(C)c2cc(C(F)(F)F)cc(C(F)(F)F)c2)cn1 [Example 57, 2-(3,5-Bis-trifluoromethyl-phenyl)-N-[6-[butyl-(2-hydroxy-ethyl)-amino]-4-(2-chloro-phenyl)-pyridin-3-yl]-N-methyl-isobutyramide]"
3.24,4.9,"CC(C)C[C@@H](CO)Nc1cc(-c2ccccc2Cl)c(N(C)C(=O)C(C)(C)c2cc(C(F)(F)F)cc(C(F)(F)F)c2)cn1 [Example 59, (S)-2-(3,5-Bis-trifluoromethyl-phenyl)-N-[4-(2-chloro-phenyl)-6-(1-hydroxymethyl-3-methyl-butylamino)-pyridin-3-yl]-N-methyl-isobutyramide]"
1.15,2.75,"CN(C(=O)C(C)(C)c1cc(C(F)(F)F)cc(C(F)(F)F)c1)c1cnc(N2CC[C@H](N(C)C)C2)cc1-c1ccccc1Cl [Example 65, (S)-2-(3,5-Bis-trifluoromethyl-phenyl)-N-[4-(2-chloro-phenyl)-6-(3-dimethylamino-pyrrolidin-1-yl)-pyridin-3-yl]-N-methyl-isobutyramide]"

# The next lines start with the compound.
Structure (SMILES),Ki [1] [nM],Ki [2] [nM]
"CC(=O)N[C@@H]1CCN(c2cc(-c3ccccc3Cl)c(N(C)C(=O)C(C)(C)c3cc(C(F)(F)F)cc(C(F)(F)F)c3)cn2)C1 [Example 44, (R)-N-[6-(3-Acetylamino-pyrrolidin-1-yl)-4-(2-chloro-phenyl)-pyridin-3-yl]-2-(3,5-bis-trifluoromethyl-phenyl)-N-methyl-isobutyramide]",0.631,15.5
"CN(C(=O)C(C)(C)c1cc(C(F)(F)F)cc(C(F)(F)F)c1)c1cnc(N2CC[C@H](O)C2)cc1-c1ccccc1Cl [Example 46, (S)-2-(3,5-Bis-trifluoromethyl-phenyl)-N-[4-(2-chloro-phenyl)-6-(3-hydroxy-pyrrolidin-1-yl)-pyridin-3-yl]-N-methyl-isobutyramide]",0.603,8.71
"CN(C(=O)C(C)(C)c1cc(C(F)(F)F)cc(C(F)(F)F)c1)c1cnc(N2CC[C@@H](O)C2)cc1-c1ccccc1Cl [Example 47, (R)-2-(3,5-Bis-trifluoromethyl-phenyl)-N-[4-(2-chloro-phenyl)-6-(3-hydroxy-pyrrolidin-1-yl)-pyridin-3-yl]-N-methyl-isobutyramide]",1.95,6.31
"CN(C(=O)C(C)(C)c1cc(C(F)(F)F)cc(C(F)(F)F)c1)c1cnc(N2CCC(O)CC2)cc1-c1ccccc1Cl [Example 51, 2-(3,5-bis-trifluoromethyl-phenyl)-N-[4′-(2-chloro-phenyl)-4-hydroxy-3,4,5,6-tetrahydro-2H-[1,2′]bipyridinyl-5′-yl]-N-methyl-isobutyramide]",0.646,28.8
"CN(C(=O)C(C)(C)c1cc(C(F)(F)F)cc(C(F)(F)F)c1)c1cnc(N2CCC(CO)CC2)cc1-c1ccccc1Cl [Example 52, 2-(3,5-Bis-trifluoromethyl-phenyl)-N-[4′-(2-chloro-phenyl)-4-hydroxymethyl-3,4,5,6-tetrahydro-2H-[1,2′]bipyridinyl-5′-yl]-N-methyl-isobutyramide]",1.1,7.94
"CN(C(=O)C(C)(C)c1cc(C(F)(F)F)cc(C(F)(F)F)c1)c1cnc(N[C@H]2CC[C@H](O)CC2)cc1-c1ccccc1Cl [Example 60, trans-2-(3,5-Bis-trifluoromethyl-phenyl)-N-[4-(2-chloro-phenyl)-6-(4-hydroxy-cyclohexylamino)-pyridin-3-yl]-N-methyl-isobutyramide]",1.26,7.94
"CC(=O)N1CCN(c2cc(-c3ccccc3Cl)c(N(C)C(=O)C(C)(C)c3cc(C(F)(F)F)cc(C(F)(F)F)c3)cn2)CC1 [Example 61, N-[6-(4-Acetyl-piperazin-1-yl)-4-(2-chloro-phenyl)-pyridin-3-yl]-2-(3,5-bis-trifluoromethyl-phenyl)-N-methyl-isobutyramide]",0.417,14.1
"CN(C(=O)C(C)(C)c1cc(C(F)(F)F)cc(C(F)(F)F)c1)c1cnc(N2CCN(C(=O)C3CC3)CC2)cc1-c1ccccc1Cl [Example 62, 2-(3,5-Bis-trifluoromethyl-phenyl)-N-[4-(2-chloro-phenyl)-6-(4-cyclopropanecarbonyl-piperazin-1-yl)-pyridin-3-yl]-N-methyl-isobutyramide]",1.02,6.61
"CC(=O)N1CCCN(c2cc(-c3ccccc3Cl)c(N(C)C(=O)C(C)(C)c3cc(C(F)(F)F)cc(C(F)(F)F)c3)cn2)CC1 [Example 63, N-[6-(4-Acetyl-[1,4]diazepan-1-yl)-4-(2-chloro-phenyl)-pyridin-3-yl]-2-(3,5-bis-trifluoromethyl-phenyl)-N-methyl-isobutyramide]",1.82,1.17
"CN(C(=O)C(C)(C)c1cc(C(F)(F)F)cc(C(F)(F)F)c1)c1cnc(N2CCC[C@H]2CN2CCCC2)cc1-c1ccccc1Cl [Example 64, (S)-2-(3,5-Bis-trifluoromethyl-phenyl)-N-[4-(2-chloro-phenyl)-6-(−2-pyrrolidin-1-ylmethyl-pyrrolidin-1-yl)-pyridin-3-yl]-N-methyl-isobutyramide]",1,2.88
"Cc1cc(F)ccc1-c1cc(NCCO)ncc1N(C)C(=O)C(C)(C)c1cc(C(F)(F)F)cc(C(F)(F)F)c1 [Example 68, 2-(3,5-Bis-trifluoromethyl-phenyl)-N-[4-(4-fluoro-2-methyl-phenyl)-6-(2-hydroxy-ethylamino)-pyridin-3-yl]-N-methyl-isobutyramide]",1.45,3.24
